Where two headings read alike, the source gives them in different places.
Target: T1, F508delCFTR (Homo sapiens, UniProt P13569, DEL508-508)
T1 construct: expressed in transfected cells; host or cells: CFBE41o- human lung-derived epithelial cells (CFBE4lo-F508delCFTR-HRP), doxycycline-inducible
Assay: Cell Surface Expression-Horse Radish Peroxidase (CSE-HRP) Assay;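 for Maximum % activity (with co-corrector): co-corrector and positive control are both the same reference corrector at 2 µM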;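 for Maximum % activity (without co-corrector): percent of the 2 µM on-plate positive control corrector response above DMSO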
Type: cell-based
Conditions: for Maximum % activity (with co-corrector) / Emax: maximum at any tested concentration, normalized to on-plate positive control; for Emax: read-out: Maximum % activity (without co-corrector)

[1] = CSE-HRP, test compound without co-corrector, read-out: EC50 (without co-corrector)
[2] = CSE-HRP, with co-corrector (2 μM of 3-[(2R,4R)-4-({[1-(2,2-difluoro-1,3-benzodioxol-5-yl)cyclopropyl]carbonyl}amino)-7-methoxy-3,4-dihydro-2H-chromen-2-yl]benzoic acid), read-out: EC50 (with co-corrector)
[3] = CSE-HRP, with co-corrector (2 μM)
[4] = test compound without co-corrector, read-out: EC50 (without co-corrector)
[5] = with co-corrector (2 μM of 3-[(2R,4R)-4-({[1-(2,2-difluoro-1,3-benzodioxol-5-yl)cyclopropyl]carbonyl}amino)-7-methoxy-3,4-dihydro-2H-chromen-2-yl]benzoic acid), read-out: EC50 (with co-corrector)
[6] = with co-corrector (2 μM of 3-[(2R,4R)-4-({[1-(2,2-difluoro-1,3-benzodioxol-5-yl)cyclopropyl]carbonyl}amino)-7-methoxy-3,4-dihydro-2H-chromen-2-yl]benzoic acid)
[7] = test compound without co-corrector

T1 sequence (P13569 with tags, fused parts or gaps DEL508-508): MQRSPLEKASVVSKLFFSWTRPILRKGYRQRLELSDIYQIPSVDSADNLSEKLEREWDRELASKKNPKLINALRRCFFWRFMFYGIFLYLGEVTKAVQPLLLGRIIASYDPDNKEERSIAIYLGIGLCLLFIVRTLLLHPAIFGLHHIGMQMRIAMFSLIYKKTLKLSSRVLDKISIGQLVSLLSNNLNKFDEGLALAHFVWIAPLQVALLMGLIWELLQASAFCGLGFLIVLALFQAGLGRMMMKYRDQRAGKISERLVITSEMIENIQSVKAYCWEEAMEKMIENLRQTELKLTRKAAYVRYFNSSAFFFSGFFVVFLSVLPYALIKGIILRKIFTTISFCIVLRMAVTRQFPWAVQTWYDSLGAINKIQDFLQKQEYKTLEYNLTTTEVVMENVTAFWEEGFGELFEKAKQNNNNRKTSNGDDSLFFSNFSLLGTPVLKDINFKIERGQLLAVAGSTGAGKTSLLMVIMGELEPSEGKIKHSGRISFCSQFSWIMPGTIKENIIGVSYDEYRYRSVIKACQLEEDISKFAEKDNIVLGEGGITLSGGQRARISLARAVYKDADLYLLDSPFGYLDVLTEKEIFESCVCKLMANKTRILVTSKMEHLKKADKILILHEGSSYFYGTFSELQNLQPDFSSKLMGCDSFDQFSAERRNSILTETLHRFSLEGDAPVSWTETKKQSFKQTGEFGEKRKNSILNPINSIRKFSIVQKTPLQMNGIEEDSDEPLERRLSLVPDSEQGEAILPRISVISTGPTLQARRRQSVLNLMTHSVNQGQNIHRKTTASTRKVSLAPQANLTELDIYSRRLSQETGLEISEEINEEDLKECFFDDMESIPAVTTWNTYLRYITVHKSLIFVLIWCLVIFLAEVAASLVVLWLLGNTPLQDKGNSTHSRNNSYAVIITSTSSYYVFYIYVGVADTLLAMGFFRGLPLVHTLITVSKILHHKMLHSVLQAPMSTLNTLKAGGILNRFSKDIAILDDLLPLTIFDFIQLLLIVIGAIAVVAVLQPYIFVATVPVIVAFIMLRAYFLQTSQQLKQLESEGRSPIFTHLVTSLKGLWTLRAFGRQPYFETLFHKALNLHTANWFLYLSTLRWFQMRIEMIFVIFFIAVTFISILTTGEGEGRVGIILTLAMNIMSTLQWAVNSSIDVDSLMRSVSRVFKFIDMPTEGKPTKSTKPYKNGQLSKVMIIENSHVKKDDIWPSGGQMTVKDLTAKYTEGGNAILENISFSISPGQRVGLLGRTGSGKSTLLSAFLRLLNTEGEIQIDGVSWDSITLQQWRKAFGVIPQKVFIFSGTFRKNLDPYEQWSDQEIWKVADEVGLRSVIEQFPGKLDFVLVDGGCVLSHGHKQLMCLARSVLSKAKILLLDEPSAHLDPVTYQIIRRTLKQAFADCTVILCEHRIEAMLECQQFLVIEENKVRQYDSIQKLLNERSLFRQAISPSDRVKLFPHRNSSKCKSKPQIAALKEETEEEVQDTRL

COc1ccc(C(F)(F)F)cc1CN[C@@H]1[C@@H](C(C)(C)C)[C@H](C(=O)O)N(C(=O)C2CCCOC2)[C@@H]1c1ccccc1N(C)C (mixture of isomers) [II-21]
EC50 [1]: 1000 to 10000 nM
EC50 [2]: 1000 to 10000 nM
Maximum % activity (with co-corrector) [3]: +++ (≥350)
Emax (CSE-HRP, without co-corrector): > 200%

COc1ccc(C(F)(F)F)cc1CN[C@H]1[C@H](C(C)(C)C)[C@@H](C(=O)O)N(C(=O)C2C3CCCC32)[C@H]1c1ccccc1 (some centres unmarked) [Example I-161]
EC50 [4]: 1000 to 10000 nM
EC50 [5]: 1000 to 10000 nM
Maximum % activity (with co-corrector) (with co-corrector (2 μM)): +++ (≥350)
Emax (without co-corrector): > 200%

COc1ccc(C(C)(C)C)cc1CN[C@H]1[C@H](C(C)(C)C)[C@@H](C(=O)O)N(C(=O)C2CCCCO2)[C@H]1c1cccnc1OC(F)F (single isomer, unassigned) [II-490]
EC50 [4]: 1000 to 10000 nM
Maximum % activity (with co-corrector) [6]: +++ (≥350)

CC(C)(C)[C@@H]1[C@@H](Nc2cc(C#N)ccn2)[C@@H](c2ccccc2)N(C(=O)C2CCCCC2)[C@H]1C(=O)O (racemic) [III-42]
Emax [7]: < 100%
EC50 [4]: 1000 to 10000 nM
Maximum % activity (with co-corrector) [6]: ++ (≥150 and <350)
EC50 [5]: 1000 to 10000 nM

COc1cnc(C2CCCCC2)cc1CN[C@H]1[C@H](C(C)(C)C)[C@@H](C(=O)O)N(C(=O)C2CCCCC2)[C@H]1c1ccccc1 [II-404]
Emax [7]: < 100%
EC50 [4]: 1000 to 10000 nM
Maximum % activity (with co-corrector) [6]: +++ (≥350)
EC50 [5]: 1000 to 10000 nM

COc1ccc(C(C)(C)C)cc1CN[C@H]1[C@H](C(C)(C)C)[C@@H](C(=O)O)N(C(=O)C2COc3ccccc3O2)[C@H]1c1cccnc1N(C)C (single isomer, unassigned) [II-471]
Emax [7]: < 100%
EC50 [4]: > 10000 nM
Maximum % activity (with co-corrector) [6]: ++ (≥150 and <350)
EC50 [5]: < 1000 nM

CCc1ccccc1[C@H]1[C@@H](NCc2cc(C3CCC3)cnc2OC)[C@H](C(C)(C)C)[C@@H](C(=O)O)N1C(=O)[C@@H]1CCCO1 [Example 111, (2S,3S,4S,5S)-3-tert-butyl-4-{[(5-cyclobutyl-2-methoxypyridin-3-yl)methyl]amino}-5-(2-ethylphenyl)-1-[(2S)-oxolane-2-carbonyl]pyrrolidine-2-carboxylic acid]
EC50 [4]: 1000 to 10000 nM
EC50 [5]: 1000 to 10000 nM
Maximum % activity (with co-corrector) (with co-corrector (2 μM)): +++ (≥350)
Emax (without co-corrector): > 200%

COc1ccc(-c2ccccc2)cc1CN[C@H]1[C@H](C(C)(C)C)[C@@H](C(=O)O)N(C(=O)[C@H]2CCCCO2)[C@H]1c1cccnc1N(C)C [II-447]
Emax [7]: 100 to 200%
EC50 [4]: 1000 to 10000 nM
Maximum % activity (with co-corrector) [6]: +++ (≥350)
EC50 [5]: 1000 to 10000 nM

COc1ccc(C23CC4CC(CC(C4)C2)C3)cc1CN[C@H]1[C@H](C(C)(C)C)[C@@H](C(=O)O)N(C(=O)C2CCCCC2)[C@H]1c1cccnc1N(C)C [III-183]
Emax [7]: > 200%
EC50 [4]: < 1000 nM
EC50 [5]: < 1000 nM
Maximum % activity (with co-corrector) (with co-corrector (2 μM)): +++ (≥350)

COc1ccc(C(C)(C)C)cc1CN[C@H]1[C@H](C(C)(C)C)[C@@H](C(=O)O)N(C(=O)C2CC(C)CC(C)C2)[C@H]1c1cccnc1N(C)C (some centres unmarked) [II-469]
Emax [7]: 100 to 200%
EC50 [4]: 1000 to 10000 nM
Maximum % activity (with co-corrector) [6]: +++ (≥350)
EC50 [5]: 1000 to 10000 nM

COc1ccc(CC2CCCCC2)cc1CN[C@H]1[C@H](C(C)(C)C)[C@@H](C(=O)O)N(C(=O)C2CCCCC2)[C@H]1c1ccccc1 [III-169]
Emax [7]: > 200%
EC50 [4]: < 1000 nM
EC50 [5]: < 1000 nM
Maximum % activity (with co-corrector) (with co-corrector (2 μM)): +++ (≥350)

COc1ccc(C(C)(C)C)cc1CN[C@H]1[C@H](C(C)(C)C)[C@@H](C(=O)O)N(C(=O)OC(C)C)[C@H]1c1cccnc1N(C)C [Example 66, (2S,3S,4S,5S)-3-tert-butyl-4-{[(5-tert-butyl-2-methoxyphenyl)methyl]amino}-5-[2-(dimethylamino)pyridin-3-yl]-1-{[(propan-2-yl)oxy]carbonyl}pyrrolidine-2-carboxylic acid]
EC50 [4]: 1000 to 10000 nM
EC50 [5]: 1000 to 10000 nM
Maximum % activity (with co-corrector) (with co-corrector (2 μM)): +++ (≥350)
Emax (without co-corrector): 100 to 200%

COc1ccc(C(C)(C)C)cc1CN[C@H]1[C@H](C(C)(C)C)[C@@H](C(=O)O)N(C(=O)C2(c3ccccc3)CC2)[C@H]1c1cccnc1OC [Example I-248]
EC50 [4]: 1000 to 10000 nM
EC50 [5]: 1000 to 10000 nM
Maximum % activity (with co-corrector) (with co-corrector (2 μM)): +++ (≥350)
Emax (without co-corrector): 100 to 200%

COc1ccc(-c2ccc(F)cc2C)cc1CN[C@H]1[C@H](C(C)(C)C)[C@@H](C(=O)O)N(C(=O)C2CCCCC2)[C@H]1c1ccccc1 [II-282]
EC50 [1]: < 1000 nM
EC50 [2]: < 1000 nM
Maximum % activity (with co-corrector) [3]: +++ (≥350)
Emax (CSE-HRP, without co-corrector): > 200%

COc1ccc(-c2ccccc2)nc1CN[C@H]1[C@H](C(C)(C)C)[C@@H](C(=O)O)N(C(=O)C2CCCCC2)[C@H]1c1ccccc1 [II-296]
EC50 [1]: 1000 to 10000 nM
EC50 [2]: 1000 to 10000 nM
Maximum % activity (with co-corrector) [3]: +++ (≥350)
Emax (CSE-HRP, without co-corrector): 100 to 200%

COc1cc(C(F)(F)F)ccc1CN[C@H]1[C@H](C(C)(C)C)[C@@H](C(=O)O)N(C(=O)OC(C)C)[C@H]1c1ccccc1C(C)C [II-561]
Emax [7]: > 200%
EC50 [4]: 1000 to 10000 nM
Maximum % activity (with co-corrector) [6]: +++ (≥350)
EC50 [5]: < 1000 nM

COc1ncc(CN[C@@H]2[C@@H](C(C)(C)C)[C@H](C(=O)O)N(C(=O)C3CCCCC3)[C@@H]2c2ccccc2)c(OC)n1 (racemic) [III-29]
Emax [7]: < 100%
EC50 [4]: 1000 to 10000 nM
Maximum % activity (with co-corrector) [6]: ++ (≥150 and <350)
EC50 [5]: 1000 to 10000 nM

COc1ccc(C(C)(C)C)cc1CN[C@H]1[C@H](C23CC(C2)C3)[C@@H](C(=O)O)N(C(=O)OC(C)C)[C@H]1c1ccccc1 [Example I-226]
EC50 [4]: 1000 to 10000 nM
EC50 [5]: 1000 to 10000 nM
Maximum % activity (with co-corrector) (with co-corrector (2 μM)): +++ (≥350)
Emax (without co-corrector): > 200%

COc1ncc(C(F)(F)F)cc1CN[C@H]1[C@H](C(C)(C)C)[C@@H](C(=O)O)N(C(=O)C23CC(C2)C3)[C@H]1c1ccccc1C(C)C [Example I-272]
EC50 [1]: 1000 to 10000 nM
EC50 [2]: < 1000 nM
Maximum % activity (with co-corrector) [3]: +++ (≥350)
Emax (CSE-HRP, without co-corrector): 100 to 200%

COc1cc(C(F)(F)F)ccc1CN[C@H]1[C@H](C(C)(C)C)[C@@H](C(=O)O)N(C(=O)OC(C)C)[C@H]1c1cccnc1N1CCC1 [Example I-275]
EC50 [1]: 1000 to 10000 nM
EC50 [2]: 1000 to 10000 nM
Maximum % activity (with co-corrector) [3]: +++ (≥350)
Emax (CSE-HRP, without co-corrector): > 200%

COc1ncc(C(F)(F)F)cc1CN[C@H]1[C@H](C(C)(C)C)[C@@H](C(=O)O)N(C(=O)C2CCCC(F)(F)C2)[C@H]1c1ccccc1 (some centres unmarked) [Example I-183]
EC50 [4]: 1000 to 10000 nM
EC50 [5]: < 1000 nM
Maximum % activity (with co-corrector) (with co-corrector (2 μM)): +++ (≥350)
Emax (without co-corrector): 100 to 200%

COc1ccc(C(C)(C)C)cc1CN[C@H]1[C@H](C(C)(C)C)[C@@H](C(=O)O)N(C(=O)c2cn(C)cc(C)c2=O)[C@H]1c1ccccc1 [III-176]
Emax [7]: < 100%
EC50 [4]: > 10000 nM
EC50 [5]: > 10000 nM
Maximum % activity (with co-corrector) (with co-corrector (2 μM)): + (<150)

COc1ccc(C(C)(C)C)cc1CN[C@H]1[C@H](C(C)(C)C)[C@@H](C(=O)O)N(C(=O)Cc2cccc(F)c2)[C@H]1c1ccccc1 [II-199]
EC50 [1]: 1000 to 10000 nM
EC50 [2]: 1000 to 10000 nM
Maximum % activity (with co-corrector) [3]: +++ (≥350)
Emax (CSE-HRP, without co-corrector): > 200%

COc1ccc(C(F)(F)F)cc1CN[C@H]1[C@H](C(C)(C)C)[C@@H](C(=O)O)N(S(=O)(=O)c2ccccc2)[C@H]1c1ccccc1 [II-155]
EC50 [1]: 1000 to 10000 nM
EC50 [2]: 1000 to 10000 nM
Maximum % activity (with co-corrector) [3]: ++ (≥150 and <350)
Emax (CSE-HRP, without co-corrector): < 100%

Cc1cc(C(F)(F)F)cc(N[C@H]2[C@H](C(C)(C)C)[C@@H](C(=O)O)N(C(=O)C3CCCCC3)[C@H]2c2ccccc2)n1 [Example 4, (2S,3S,4S,5S)-3-tert-butyl-1-(cyclohexanecarbonyl)-4-{[6-methyl-4-(trifluoromethyl)pyridin-2-yl]amino}-5-phenylpyrrolidine-2-carboxylic acid]
EC50 [4]: 1000 to 10000 nM
EC50 [5]: 1000 to 10000 nM
Maximum % activity (with co-corrector) (with co-corrector (2 μM)): +++ (≥350)
Emax (without co-corrector): < 100%

COc1ccc(C(C)(C)C)cc1CN[C@H]1[C@H](C(C)(C)C)[C@@H](C(=O)O)N(C(=O)C2CCCC(C)C2)[C@H]1c1ccccc1 (some centres unmarked) [III-175]
Emax [7]: > 200%
EC50 [4]: < 1000 nM
EC50 [5]: < 1000 nM
Maximum % activity (with co-corrector) (with co-corrector (2 μM)): +++ (≥350)

COc1ccc(C(C)(C)C)cc1CN[C@H]1[C@H](C(C)(C)C)[C@@H](C(=O)O)N(C(=O)OC(C)C)[C@H]1c1ccccc1OC [Example 13, (2S,3S,4S,5S)-3-tert-butyl-4-{[(5-tert-butyl-2-methoxyphenyl)methyl]amino}-5-(2-methoxyphenyl)-1-{[(propan-2-yl)oxy]carbonyl}pyrrolidine-2-carboxylic acid]
EC50 [4]: 1000 to 10000 nM
EC50 [5]: 1000 to 10000 nM
Maximum % activity (with co-corrector) (with co-corrector (2 μM)): +++ (≥350)
Emax (without co-corrector): 100 to 200%

COc1ccc(C(C)(C)C)cc1CN[C@H]1[C@H](C(C)(C)C)[C@@H](C(=O)O)N(C(=O)[C@@H]2CCCO2)[C@H]1c1ccccc1C(C)C [Example 104, (2S,3S,4S,5S)-3-tert-butyl-4-{[(5-tert-butyl-2-methoxyphenyl)methyl]amino}-1-[(2S)-oxolane-2-carbonyl]-5-[2-(propan-2-yl)phenyl]pyrrolidine-2-carboxylic acid]
EC50 [4]: 1000 to 10000 nM
EC50 [5]: < 1000 nM
Maximum % activity (with co-corrector) (with co-corrector (2 μM)): +++ (≥350)
Emax (without co-corrector): > 200%
